In patent publication US7326721B2 (Hypnion, Inc., priority 2003, dated 2008):
pKi: −log10 of the molar value. Where two headings read alike, the source gives them in different places.

What was measured:
hERG = hERG (Homo sapiens, UniProt Q12809); settings: human, pH 7.4
adult male Wistar rats = experiment: SCORE-2000 sleep-wakefulness, locomotor activity and body temperature monitoring; assay type: in vivo, rat
M1 muscarinic receptor = target: T1, M1 muscarinic receptor (Homo sapiens, UniProt P11229); experiment: Muscarinic M1 binding assay ([3H]-scopolamine, N-methyl chloride); set-up: purchased PerkinElmer, Inc., Wellesley, Mass; host or cells: CHO cells; settings: read-out: Ki M1
T1 sequence (P11229 1-460): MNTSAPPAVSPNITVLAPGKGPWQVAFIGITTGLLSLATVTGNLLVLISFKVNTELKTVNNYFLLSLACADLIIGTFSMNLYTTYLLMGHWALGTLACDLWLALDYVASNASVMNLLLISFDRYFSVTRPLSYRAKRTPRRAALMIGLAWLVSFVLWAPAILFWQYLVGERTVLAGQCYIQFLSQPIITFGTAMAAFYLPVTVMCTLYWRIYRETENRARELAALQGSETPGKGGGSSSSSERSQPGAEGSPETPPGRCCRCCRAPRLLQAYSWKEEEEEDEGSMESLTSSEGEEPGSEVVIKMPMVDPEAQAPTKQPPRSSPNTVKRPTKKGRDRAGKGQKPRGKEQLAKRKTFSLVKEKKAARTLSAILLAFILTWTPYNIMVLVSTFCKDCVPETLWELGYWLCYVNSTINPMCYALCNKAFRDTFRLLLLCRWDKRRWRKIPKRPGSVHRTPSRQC

M3 muscarinic receptor = M3 muscarinic receptor (Homo sapiens, UniProt P20309); experiment: Muscarinic M3 binding assay; set-up: purchased PerkinElmer, Inc., Wellesley, Mass; host or cells: CHO cells; settings: read-out: Ki M3
Chain of M3 muscarinic receptor (P20309 whole entry): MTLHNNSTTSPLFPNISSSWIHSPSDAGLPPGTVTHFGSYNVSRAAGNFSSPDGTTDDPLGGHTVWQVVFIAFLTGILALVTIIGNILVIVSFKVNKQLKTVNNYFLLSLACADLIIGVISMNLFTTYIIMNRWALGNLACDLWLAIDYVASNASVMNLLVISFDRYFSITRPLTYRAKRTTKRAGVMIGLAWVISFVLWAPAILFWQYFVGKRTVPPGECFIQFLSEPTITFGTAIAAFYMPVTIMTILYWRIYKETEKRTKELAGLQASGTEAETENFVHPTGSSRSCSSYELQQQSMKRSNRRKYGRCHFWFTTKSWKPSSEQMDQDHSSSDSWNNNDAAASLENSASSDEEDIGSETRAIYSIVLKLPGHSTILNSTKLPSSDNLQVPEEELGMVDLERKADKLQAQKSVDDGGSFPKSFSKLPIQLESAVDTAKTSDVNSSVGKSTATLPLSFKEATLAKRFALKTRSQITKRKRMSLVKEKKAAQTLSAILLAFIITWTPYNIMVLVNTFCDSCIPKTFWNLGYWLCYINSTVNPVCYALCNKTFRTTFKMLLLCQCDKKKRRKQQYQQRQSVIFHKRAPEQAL

H1 histamine receptor = target: T2, H1 histamine receptor (Bos taurus, UniProt P30546); experiment: Histamine H1 competitive binding assay ([3H]pyrilamine); set-up: species or system bovine; settings: read-out: Ki H1
T2 construct: the receptors were obtained from bovine cerebellar membrane tissue; from tissue; host or cells: bovine cerebellar membranes
T2 sequence (P30546 whole entry): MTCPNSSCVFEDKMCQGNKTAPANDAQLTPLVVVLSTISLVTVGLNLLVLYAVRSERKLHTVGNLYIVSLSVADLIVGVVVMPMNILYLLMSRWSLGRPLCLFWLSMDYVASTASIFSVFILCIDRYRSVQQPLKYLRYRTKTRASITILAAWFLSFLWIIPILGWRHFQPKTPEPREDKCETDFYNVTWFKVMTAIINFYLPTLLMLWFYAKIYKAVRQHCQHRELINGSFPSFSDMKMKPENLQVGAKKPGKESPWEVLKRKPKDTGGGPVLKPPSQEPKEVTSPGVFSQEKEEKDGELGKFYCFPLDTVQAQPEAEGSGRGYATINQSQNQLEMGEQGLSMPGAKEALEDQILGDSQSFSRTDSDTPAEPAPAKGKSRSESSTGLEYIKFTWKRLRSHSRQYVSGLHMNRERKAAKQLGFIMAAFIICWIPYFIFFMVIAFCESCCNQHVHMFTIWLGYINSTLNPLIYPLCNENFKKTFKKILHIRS

M2 muscarinic receptor = target: T3, M2 muscarinic receptor (Homo sapiens, UniProt P08172); experiment: Muscarinic M2 binding assay; set-up: purchased PerkinElmer, Inc., Wellesley, Mass; host or cells: CHO cells; settings: read-out: Ki M2
T3 sequence (P08172 1-466): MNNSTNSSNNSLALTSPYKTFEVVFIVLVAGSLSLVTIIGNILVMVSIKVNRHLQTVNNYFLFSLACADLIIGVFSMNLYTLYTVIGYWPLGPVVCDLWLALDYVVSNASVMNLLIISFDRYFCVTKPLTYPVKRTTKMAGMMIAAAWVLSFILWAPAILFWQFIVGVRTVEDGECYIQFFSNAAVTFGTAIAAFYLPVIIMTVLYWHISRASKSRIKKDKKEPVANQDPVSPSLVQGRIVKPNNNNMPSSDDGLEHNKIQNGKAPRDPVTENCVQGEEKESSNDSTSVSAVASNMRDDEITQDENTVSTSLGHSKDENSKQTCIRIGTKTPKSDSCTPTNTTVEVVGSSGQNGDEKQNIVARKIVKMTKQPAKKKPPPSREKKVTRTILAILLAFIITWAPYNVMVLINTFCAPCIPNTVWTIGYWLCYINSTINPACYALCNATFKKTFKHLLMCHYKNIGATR

male Wistar rats = assay type: in vivo
Experimental: The Irwin screen can provide useful information on potential side effects of compounds on general physiological and behavioural functions. The screen was conducted by administering the test compounds orally in 0.25% aqueous methylcellulose using male Wistar rats, a frequently used species in such studies and for which background data are readily available.
The Irwin screen tests for numerous parameters in animals that have been administered the test compound. For example, the screen can include: in-cage effects, e.g., dispersion, respiratory rate, locomotor activity, restlessness, fighting, alertness, apathy, and exophthalmus; in-arena effects, e.g., transfer arousal, spatial locomotion, ptosis, startle, tail elevation, piloerection, touch escape, positional passivity, catalepsy, tighting reflex, visual placing, grip strength, pinna, corneal, pain response, and wire manoeuvre; parameters observed in handling, e.g., cyanosis, cutaneous blood flow, hypothermia, body tone, pupil size, light-pupil response, lacrimation, grooming, red staining, salivation, and provoked biting; general scores e.g., fearfulness, irritability, abnormal gait, abnormal body carriage, tremors, twitches, convulsions, bizarre behaviour, writhing, vocalisation, diarrhoea, number of defaecations, number of urinations, moribund, lethality, and abnormalities detected. Further details can be found in Irwin, S; Comprehensive observational assessment: I a. A systematic, quantitative procedure for assessing the behavioural and physiological state of the mouse.
Irwin screening of the disclosed sleep-inducing agents was performed by Covance (Princeton, N.J.) according to Irwin, above; Covance Standard Operating Procedure (current revision of SOP PHARM 8.10); relevant regulatory authority guidelines ICH (International Committee for Harmonization) Guideline (Topic S7A; CPMP/ICH/539/00) on Safety Pharmacology Studies for human pharmaceuticals (November 2000); and all procedures carried out on live animals were subject to the provisions of United Kingdom Law, in particular the Animals (Scientific Procedures) Act, 1986. which obliges all UK laboratories to maintain a local ethical review process to ensure that all animal use in the establishment is carefully considered and justified; that proper account is taken of all possibilities for reduction, refinement or replacement and that high standards of accommodation and care are achieved.
All test compound formulations were prepared on the day of dosing by Covance Harrogate Dispensary. The test compounds were formulated in 0.25% aqueous methylcellulose at the highest concentration required. Lower doses were obtained by serial dilution of the highest concentration using 0.25% aqueous methylcellulose. Dose levels are expressed in terms of the amount of test compound administered without regard to purity or active content. All formulations were stored at room temperature (nominally 10 to 30° C.) in sealed containers and protected from light.
An adequate number of male Wistar (Crl:WI(Glx/BRL/Han) BR:WH) rats were obtained from Charles River Ltd. (Margate, Kent, United Kingdom). The rats were approximately 5 weeks of age and weighed between 150 and 170 g on arrival. The animals were housed in groups of no more than six in polypropylene cages (33×15×13 cm) or (45×28×20 cm) with solid floors and Grade 10 woodflakes (Datesand Ltd., Cheshire, United Kingdom) as bedding. The cages were cleaned and dried before use. Aspen chew blocks were placed within the cages as a form of environmental enrichment. Routinely, holding rooms were maintained within acceptable limits for temperature and relative humidity (nominally 19 to 25° C. and 40% to 70%, respectively). These rooms were illuminated by fluorescent light for 12 hours out of each 24 hour cycle and designed to receive at least 15 fresh air changes per hour. […]

Chain of hERG (Q12809 whole entry): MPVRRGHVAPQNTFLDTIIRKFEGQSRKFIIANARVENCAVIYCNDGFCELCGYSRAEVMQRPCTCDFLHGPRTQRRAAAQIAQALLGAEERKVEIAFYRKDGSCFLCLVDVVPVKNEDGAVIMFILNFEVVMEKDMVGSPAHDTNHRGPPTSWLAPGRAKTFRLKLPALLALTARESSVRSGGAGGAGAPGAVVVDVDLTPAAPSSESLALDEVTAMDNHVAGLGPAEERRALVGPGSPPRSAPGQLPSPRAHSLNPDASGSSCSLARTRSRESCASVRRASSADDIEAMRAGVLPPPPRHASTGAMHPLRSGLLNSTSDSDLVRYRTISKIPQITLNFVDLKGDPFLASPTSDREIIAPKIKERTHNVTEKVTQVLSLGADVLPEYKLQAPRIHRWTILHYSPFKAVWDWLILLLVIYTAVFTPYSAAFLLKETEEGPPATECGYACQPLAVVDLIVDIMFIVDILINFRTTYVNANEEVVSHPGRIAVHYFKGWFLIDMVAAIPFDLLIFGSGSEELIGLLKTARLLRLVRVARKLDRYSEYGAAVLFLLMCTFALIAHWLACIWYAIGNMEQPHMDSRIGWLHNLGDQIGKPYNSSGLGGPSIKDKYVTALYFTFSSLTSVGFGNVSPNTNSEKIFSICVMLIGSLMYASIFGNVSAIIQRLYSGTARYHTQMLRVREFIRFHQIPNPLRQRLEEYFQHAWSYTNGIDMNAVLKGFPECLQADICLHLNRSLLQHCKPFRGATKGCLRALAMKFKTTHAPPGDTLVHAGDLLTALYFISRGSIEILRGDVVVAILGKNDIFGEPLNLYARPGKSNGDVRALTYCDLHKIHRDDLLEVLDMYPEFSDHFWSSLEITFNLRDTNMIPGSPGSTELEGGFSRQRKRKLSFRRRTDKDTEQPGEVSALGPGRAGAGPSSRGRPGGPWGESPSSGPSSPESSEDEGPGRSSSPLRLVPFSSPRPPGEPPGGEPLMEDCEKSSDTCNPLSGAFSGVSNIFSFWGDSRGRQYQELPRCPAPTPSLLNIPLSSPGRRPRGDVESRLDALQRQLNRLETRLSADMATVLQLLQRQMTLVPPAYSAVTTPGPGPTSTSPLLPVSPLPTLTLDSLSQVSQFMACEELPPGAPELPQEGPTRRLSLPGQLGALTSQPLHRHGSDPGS

SMILES | hERG at micromolar (% blocking of the hERG channel) (hERG; 10 µM) | LUSB (adult male Wistar rats; dose 3 mg/kg oral at CT-18) | NREM (adult male Wistar rats; dose 3 mg/kg oral at CT-18) | LUSB (adult male Wistar rats; dose 10 mg/kg oral at CT-18) | NREM (adult male Wistar rats; dose 10 mg/kg oral at CT-18) | LUSB (adult male Wistar rats; dose 30 mg/kg oral at CT-18) | NREM (adult male Wistar rats; dose 30 mg/kg oral at CT-18) | pKi (M1 muscarinic receptor) | pKi (M3 muscarinic receptor) | pKi (H1 histamine receptor) | pKi (M2 muscarinic receptor) | Irwin at mg/kg dose (male Wistar rats; rat, in vivo) | hERG at micromolar (% blocking of the hERG channel) (hERG) | Irwin at mg/kg dose (male Wistar rats; 10 mg/kg oral) | Irwin at mg/kg dose (male Wistar rats; 30 mg/kg oral) | Irwin at mg/kg dose (male Wistar rats; 100 mg/kg oral)
COc1ccc2c(c1)COc1ccccc1C2=C1CCN(CC(C)(C)C(=O)O)CC1 [Compound 50a] | 9.7% @ 10 | 4.8 min | 12.7 min | 9.3 min | 32.6 min | 11.2 min | 41.9 min | < 5.00 | < 5.00 | 7.57 | < 5.00 | clean | – | – | – | –
COc1ccc2c(c1)COc1ccccc1C2=C1CCN(CC2(C(=O)O)CC2)CC1 [Compound 50b] | 27.1% @ 10 | 6.9 min | 10.7 min | 8.1 min | 24.2 min | 14.3 min | 51.9 min | < 5.00 | < 5.00 | 7.16 | < 5.00 | – | – | – | – | –
CC(C)(CN1CCC(=C2c3ccc(Cl)cc3COc3ccccc32)CC1)C(=O)O [Compound 51a] | – | 8.8 min | 32.1 min | 18.2 min | 60.3 min | 6.3 min | 49.3 min | < 5.00 | < 5.00 | 7.58 | < 5.00 | – | 40.6% | clean | some side effects | lethality
O=C(O)C1(CN2CCC(=C3c4ccc(Cl)cc4COc4ccccc43)CC2)CC1 [Compound 51b] | 23% @ 10 | 8.4 min | 34.7 min | 8.3 min | 45 min | 128 min | 60.4 min | < 5.00 | < 5.00 | 7.14 | < 5.00 | – | – | – | – | –
O=C(O)C1(CCN2CCC(=C3c4ccc(Cl)cc4COc4ccccc43)CC2)CC1 [Compound 59b] | 28% @ 10 | – | – | 12.8 min | 42.4 min | 6.1 min | 23.1 min | < 5.00 | < 5.00 | 7.18 | < 5.00 | clean | – | – | – | –
